Test systems include Listeria monocytogenes; Escherichia coli; Candida albicans; Vibrio cholerae; Escherichia coli BL21.
Holding throughout (assay): ≥ marks a high value that may be exact or a test limit, other limits are often not marked, values filed in µg/mL are converted to µM
The subject of assay [1] is Batrachochytrium dendrobatidis JEL-197.
Assay [2] deals with Neisseria gonorrhoeae FA-19.
In assay [3] the test system is Neisseria gonorrhoeae F-62.
Assay [4] deals with Salmonella enterica subsp. enterica serovar Typhi.
The test system of assay [5] is Staphylococcus epidermidis.
Assay [6] has as its system Stenotrophomonas maltophilia B32/1.
Assay [7] relates to Acinetobacter baumannii NM75.
Assay [8] deals with Escherichia coli ATCC 25726.
For assay [9], the system named is Stenotrophomonas maltophilia B5/5.
In assay [10] the test system is Pseudomonas aeruginosa ATCC 27853.
Assay [11] deals with Acinetobacter baumannii NM109.
The subject of assay [12] is Enterococcus faecalis ATCC 29212.
Assay [13] concerns Acinetobacter baumannii NM8.
Assay [14] relates to Staphylococcus epidermidis RP62A.
Assay [15] concerns Stenotrophomonas maltophilia B32/4.
For assay [16], the system named is Staphylococcus epidermidis T37/8.
For assay [17], the system named is Stenotrophomonas maltophilia U8908.
Assay [18] deals with Stenotrophomonas maltophilia B6/2.
For assay [19], the system named is Staphylococcus epidermidis T6/19.
In assay [20] the test system is Staphylococcus aureus 145/08.
For assay [21], the system named is Acinetobacter baumannii NM35.
For assay [22], the system named is Acinetobacter baumannii NM124.
Assay [23] relates to Candida albicans ATCC 90028.
Assay [24] relates to Staphylococcus epidermidis RP62A/1.
Assay [25] deals with Klebsiella pneumoniae ATCC 700603.
Assay [26] deals with Staphylococcus aureus ATCC 25923.
Assay [27] relates to Lactobacillus acidophilus NCTC 1723.
In assay [28] the test system is Enterococcus faecalis NCTC 12697.
For assay [29], the system named is Acinetobacter baumannii ATCC 19606.
In assay [30] the test system is Pseudomonas aeruginosa 8600.
Assay [31] has as its system Candida albicans NCTC 3179.
Assay [32] relates to Streptococcus mutans NCTC 10449.
The subject of assay [33] is Staphylococcus aureus ATCC 43300.
The test system of assay [34] is Staphylococcus aureus ATCC 6538P.
For assay [35], the system named is Escherichia coli ATCC 25922.
Assay [36] relates to Bacillus subtilis ATCC 23857.
Assay [37] has as its system Staphylococcus aureus ATCC 6538.
The subject of assay [38] is Escherichia coli ATCC 700926.
Assay [39] relates to Staphylococcus aureus USA 400.
For assay [40], the system named is Staphylococcus aureus USA 300.
In assay [41] the test system is Staphylococcus epidermidis ATCC 12228.
Assay [42] relates to Pseudomonas aeruginosa ATCC 9027.

The record followed here is DBAASP.

Each structure is given as a SMILES string. Values after ≈ are worked out from the molar mass of the structure shown. Values joined by “and” are separate entries in the source; they are usually repeats but may differ in a detail not shown here. Equal entries are not always repeated. A value given as a limit tells only on which side of the number the result lay.

Take `CC[C@H](C)[C@H](NC(=O)CN)C(=O)N[C@@H](CC(C)C)C(=O)N[C@@H](CC(=O)O)C(=O)N[C@@H](CO)C(=O)N[C@@H](Cc1ccccc1)C(=O)N[C@@H](CCCCN)C(=O)N[C@@H](CC(=O)O)C(=O)N[C@H](C(=O)N[C@@H](C)C(=O)N[C@@H](CCCCN)C(=O)NCC(=O)N[C@H](C(=O)N[C@@H](C)C(=O)N[C@H](C(=O)N[C@@H](Cc1cnc[nH]1)C(=O)N[C@@H](CC(C)C)C(=O)N[C@@H](CC(C)C)C(=O)N[C@@H](CC(N)=O)C(=O)N[C@@H](CCSC)C(=O)N[C@@H](C)C(=O)N[C@@H](CCCCN)C(=O)N[C@H]1CSSC[C@@H](C(=O)O)NC(=O)CNC(=O)[C@H]([C@@H](C)O)NC(=O)[C@H](CCSC)NC(=O)[C@H](CCCCN)NC1=O)[C@@H](C)O)C(C)C)C(C)C` [GILDSFKDVAKGVATHLLNMAKCKMTGC]: the MIC (commonly the lowest concentration found to suppress growth) in assay [1] is at least 100 µM.

`CC(C)C[C@H](NC(=O)[C@H](CCCNC(=N)N)NC(=O)CNC(=O)CNC(=O)[C@@H](N)CCCNC(=N)N)C(=O)N[C@H]1CSSC[C@@H](C(=O)N[C@H](C(=O)NCC(=O)N[C@@H](CCCNC(=N)N)C(N)=O)C(C)C)NC(=O)[C@H](C(C)C)NC(=O)[C@@H]2CSSC[C@H](NC(=O)[C@H](Cc3ccc(O)cc3)NC1=O)C(=O)N[C@@H](CCCNC(=N)N)C(=O)N1CCC[C@H]1C(=O)N[C@@H](CCCNC(=N)N)C(=O)N[C@@H](Cc1ccccc1)C(=O)N2` [RGGRLCYCRPRFCVCVGR]: the MIC in assay [2] was determined as 0.761 µM (≈ 1.6 µg/mL); in the assay with Listeria monocytogenes, 1.19 µM (≈ 2.49 µg/mL); against Escherichia coli, 1.38 µM (≈ 2.89 µg/mL); in assay [3] it was 0.666 µM (≈ 1.4 µg/mL); with Candida albicans it was 7.42 µM (≈ 15.6 µg/mL).

Regarding `CC(C)C[C@H](NC(=O)[C@H](CO)NC(=O)CNC(=O)[C@H](C)NC(=O)[C@@H](N)CC(N)=O)C(=O)N[C@@H](CC(C)C)C(=O)N[C@@H](CO)C(=O)NCC(=O)N[C@@H](Cc1c[nH]c2ccccc12)C(=O)NCC(=O)O` [NAGSLLSGWG], the figures for the minimum inhibitory concentration (MIC) (in assay [4]; in [5]; in the assay on Vibrio cholerae) were 0.687 µM (≈ 0.66 µg/mL), 0.687 µM (≈ 0.66 µg/mL) and 3 µM (≈ 2.88 µg/mL), respectively.

Regarding `CC[C@H](C)[C@H](NC(=O)[C@H](C)NC(=O)[C@@H](NC(=O)[C@H](C)NC(=O)CNC(=O)[C@H](CCCCN)NC(=O)[C@@H](NC(=O)[C@H](C)NC(=O)CNC(=O)[C@H](CCCCN)NC(=O)[C@H](CC(C)C)NC(=O)[C@@H](NC(=O)[C@H](CCCCN)NC(=O)[C@H](CCCCN)NC(=O)[C@H](CC(C)C)NC(=O)[C@@H](NC(=O)[C@H](CC(=O)O)NC(=O)[C@H](CCCCN)NC(=O)[C@@H](NC(=O)[C@H](CCCCN)NC(=O)[C@@H]1CCCN1C(=O)[C@H](CO)NC(=O)[C@H](CC(C)C)NC(=O)[C@H](CCCCN)NC(=O)[C@@H](N)CC(C)C)[C@@H](C)O)[C@@H](C)O)C(C)C)[C@@H](C)CC)[C@@H](C)CC)C(=O)N[C@@H](C)C(=O)N[C@@H](CO)C(=O)N[C@@H](CCSC)C(=O)N[C@@H](C)C(N)=O` [LKLSPKTKDTLKKVLKGAIKGAIAIASMA], the MIC is 2.5 µM (≈ 7.49 µg/mL) in assay [6]; 2.5 µM (≈ 7.49 µg/mL) in assay [7]; 10 µM and 5 µM in assay [8]; 2.5 µM (≈ 7.49 µg/mL) in assay [9]; 20 µM (≈ 59.9 µg/mL) in [10]; 5 µM (≈ 15 µg/mL) in [11]. Moreover, the MIC worked out at 20 µM (≈ 59.9 µg/mL) in assay [12]; 5 µM (≈ 15 µg/mL) in assay [13]; 1.25 µM (≈ 3.74 µg/mL) in assay [14]; 1.25 µM (≈ 3.74 µg/mL) in assay [15]; 1.25 µM (≈ 3.74 µg/mL) in assay [16]; 5 µM (≈ 15 µg/mL) in assay [17]. The MIC in assay [18] is 1.25 µM (≈ 3.74 µg/mL); in assay [19], 1.25 µM (≈ 3.74 µg/mL); in [20], 2.5 µM (≈ 7.49 µg/mL); in [21] it was 5 µM (≈ 15 µg/mL); in assay [22], 2.5 µM (≈ 7.49 µg/mL); in [23], at least 80 µM. For the same compound, the results for the MIC in assay [24], in assay [25] and in assay [26] were 1.25 µM (≈ 3.74 µg/mL), 10 µM (≈ 29.9 µg/mL) and 2.5 µM (≈ 7.49 µg/mL), respectively.

As to `CSCC[C@H](NC(=O)[C@H](CC(C)C)NC(=O)CNC(=O)[C@H](Cc1ccccc1)NC(=O)[C@H](Cc1ccccc1)NC(=O)[C@H](CCC(N)=O)NC(=O)[C@H](CCC(N)=O)NC(=O)[C@@H]1CCCN1C(=O)[C@H](CCCCN)NC(=O)[C@@H]1CCCN1C(=O)[C@@H](N)CCCN=C(N)N)C(N)=O` [RPKPQQFFGLM], the MIC in assay [27] was at least 54.9 µM; in [28], at least 371 µM; in assay [29] it was over 94.9 µM; in [30], at least 94.9 µM; in assay [31], 6.01 µM (≈ 8.09 µg/mL); in [32], at least 127 µM.

For `CC[C@H](C)[C@H](NC(=O)[C@H](CCCCN)NC(=O)[C@H](CCCCN)NC(=O)[C@@H](NC(=O)[C@@H](NC(=O)[C@H](CCCCN)NC(=O)[C@H](CCCCN)NC(=O)[C@@H](NC(=O)[C@@H](NC(=O)[C@H](CCCCN)NC(=O)[C@H](CCCCN)NC(=O)[C@@H](NC(=O)[C@@H](NC(=O)CN)[C@@H](C)CC)[C@@H](C)CC)[C@@H](C)CC)[C@@H](C)CC)[C@@H](C)CC)[C@@H](C)CC)C(=O)O` [GIIKKIIKKIIKKI], the MIC in [33] was 125 µM (≈ 205 µg/mL); in [34] it was 7.8 µM (≈ 12.8 µg/mL); in assay [35] it was 5.7 µM (≈ 9.33 µg/mL); in [36] it was 2.4 µM (≈ 3.93 µg/mL); in assay [10] it was 15.6 µM (≈ 25.5 µg/mL); in [37], 128 µM and 62.5 µM. Besides, the MIC was 15.6 µM (≈ 25.5 µg/mL) in the assay on Escherichia coli BL21; 15.6 µM (≈ 25.5 µg/mL) in [38]; at least 125 µM in [39]; at least 125 µM in assay [40]; 3.9 µM (≈ 6.38 µg/mL) in assay [41]; 9.3 µM (≈ 15.2 µg/mL) in assay [42].
